Where a name gives a salt, the structure may show the parent alone.
target: T1, CCK Receptor (Pancreas) (Rattus norvegicus, UniProt P30551); experiment: CCK Receptor Binding (Pancreas), inhibition of specific 125I-CCK-8 binding; parameters: species or system Sprague-Dawley rats; settings: rat whole pancreas membranes; 50 pM 125I-CCK-8; 25°C for 2 hours
T1 construct: The whole pancreas was dissected free of fat tissue and was homogenized; from tissue; host or cells: rat pancreas membrane homogenate
T1 sequence (P30551 1-444): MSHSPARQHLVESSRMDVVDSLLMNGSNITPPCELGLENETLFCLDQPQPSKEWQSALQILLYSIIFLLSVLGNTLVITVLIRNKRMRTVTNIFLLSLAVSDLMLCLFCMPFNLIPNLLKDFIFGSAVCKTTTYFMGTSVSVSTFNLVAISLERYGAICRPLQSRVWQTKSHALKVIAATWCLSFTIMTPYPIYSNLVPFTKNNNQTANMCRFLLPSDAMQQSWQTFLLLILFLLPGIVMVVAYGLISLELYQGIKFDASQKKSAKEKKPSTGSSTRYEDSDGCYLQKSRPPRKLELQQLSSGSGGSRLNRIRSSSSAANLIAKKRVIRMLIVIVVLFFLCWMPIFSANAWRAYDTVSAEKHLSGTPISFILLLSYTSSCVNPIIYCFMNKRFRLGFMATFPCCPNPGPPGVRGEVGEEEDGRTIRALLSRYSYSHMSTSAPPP
Description: CCK-8 sulphated was radiolabelled with ¹²⁵I-Bolton Hunter reagent (2000 Ci/mmole). Receptor binding was performed according to Chang and Lotti (Proc. Natl. Acad. Sci. 83, 4923-4926, 1986) with minor modifications.
Male Sprague-Dawley rats (150-200g) were sacrificed by decapitation. The whole pancreas was dissected free of fat tissue and was homogenized in 25 volumes of ice-cold 10 mM N-2-hydroxyethyl-piperazine-N′-2-ethane sulphonic acid (HEPES) buffer with 0.1% soya bean trypsin inhibitor (pH 7.4 at 25°C) with a Kinematica Polytron. The homogenates were centrifuged at 47,800 g for 10 min. Pellets were resuspended in 10 volumes of binding assay buffer (20mM (HEPES)), 1mM ethylene glycol-bis-(β-aminoethylether-N,N′-tetraacetic acid) (EGTA), 5mM MgCl₂, 150 mM NaCl, bacitracin 0.25 mg/ml, soya bean trypsin inhibitor 0.1 mg/ml, and bovine serum albumin 2 mg/ml pH 6.5 at 25°C) using a Teflon (trademark) homogenizer, 15 strokes at 500 rpm. The homogenate was further diluted in binding assay buffer to give a final concentration of 0.5 mg original wet weight/1 ml buffer. […] All assays were run in duplicate. The reaction mixtures were incubated at 25°C for 2 hours and the reaction terminated by rapid filtration (Brandell 24 well cell harvester) over Whatman GF/C filters, washing 3 x 4 mls with ice-cold 100 Mm NaCl. The radioactivity on the filters was counted with a LKB gamma counter.
Drug displacement studies were performed with at least 10 concentrations of compounds of Formula I and the IC₅₀ values were determined by regression analysis IC₅₀ refers to the concentration of the compound required to inhibit 50% of specific binding of ¹²⁵I-CCK-8.

IC50 [nM] | Structure (SMILES)
11.7 | Cc1cccc(NC(=O)NC2N=C(N3CCCCCCC3)c3ccccc3N(C)C2=O)c1 (single isomer, unassigned; (+)) [Example 52, (+)-N-[2,3-Dihydro-5-(heptamethyleneimin-1-yl)-1-methyl-2-oxo-1H-1,4-benzodiazepin-3-yl]-N′-[3-methylphenyl] urea hydrochloride]
1600 | CCCN1C(=O)C(NC(=O)Nc2cccc(C)c2)N=C(N2CCN(C)CC2)c2cc(C)ccc21 (racemic) [Example 38, N-(3(R,S)-2,3-Dihydro-7-methyl-5-(4-methylpiperazin-1-yl)-2-oxo-1-propyl-1H-1,4-benzodiazepin-3-yl]-N′-[3-methylphenyl]urea]
10.5 | CCCN1C(=O)C(NC(=O)Nc2cccc(C)c2)N=C(N2CCSCC2)c2ccccc21 (single isomer, unassigned; (+)) [Example 70, (+)-N-[2,3-Dihydro-2-oxo-1-propyl-5-(thiomorpholin-4-yl)-1H-1,4-benzodiazepin-3-yl]-N′-[3-methylphenyl] urea hydrochloride]
711 | CCCN1C(=O)C(NC(=O)Nc2cccc(C)c2)N=C(N2CCN(C)CC2)c2ccc(C)cc21 (racemic) [Example 42, N-[3(R,S)-2,3-Dihydro-8-methyl-5-(4-methylpiperazin-1-yl)-2-oxo-1-propyl-1H-1,4-benzodiazepin-3-yl]-N′-[3-methylphenyl] urea]
2300 | CN1CCN(C2=NC(NC(=O)Nc3cccc(O)c3)C(=O)N(C)c3ccccc32)CC1 (racemic) [Example 11, N-[3(R,S)-2,3-Dihydro-1-methyl-5-(4-methylpiperazin-1-yl)-2-oxo-1H-1,4-benzodiazepin-3-yl]-N#MIN#-[3-hydroxyphenyl] urea]
> 3000 | CCNC(=O)c1cccc(NC(=O)NC2N=C(N3CCN(C)CC3)c3ccccc3N(C)C2=O)c1 (racemic) [Example 18, N-[3(R,S)-2,3-Dihydro-1-methyl-2-oxo-5-(4-methylpiperazin-1-yl)-1H-1,4-benzodiazepin-3-yl]-N′-[3-(N-ethylcarboxamido)phenyl] urea]
31.4 | CN1C(=O)C(NC(=O)Nc2cccc(C(F)(F)F)c2)N=C(N2CCCCCC2)c2ccccc21 (racemic) [Example 48, N-[3(R,S)-2,3-Dihydro-5-(homopiperidin-1-yl)-1-methyl-2-oxo-1H-1,4-benzodiazepin-3-yl]-N′-[3-trifluoromethylphenyl] urea]
2400 | CCCN1C(=O)C(NC(=O)Nc2cccc(CC)c2)N=C(N2CCN(C)CC2)c2ccccc21 (racemic) [Example 21, N-[3(R,S)-2,3-Dihydro-5-(4-methylpiperazin-1-yl)-2-oxo-1-propyl-1H-1,4-benzodiazepin-3-yl]-N#MIN#-[3-ethylphenyl] urea]
25 | CCc1cccc(NC(=O)NC2N=C(N3CCCCC3)c3ccccc3N(C)C2=O)c1 (racemic) [Example 19, N-[3(R,S)-2,3-Dihydro-1-methyl-2-oxo-5-(piperidin-1-yl)-1H-1,4-benzodiazepin-3-yl]-N′-[3-ethylphenyl] urea]
23.4 | CCCN1C(=O)C(NC(=O)Nc2cccc(C)c2)N=C(N2CCCCCC2)c2ccccc21 (racemic) [Example 47, N-[3(R,S)-2,3-Dihydro-5-(homopiperidin-1-yl)-2-oxo-1-propyl-1H-1,4-benzodiazepin-3-yl]-N′-[3-methylphenyl] urea]
2700 | CN1CCN(C2=NC(NC(=O)Nc3cccc(C(F)(F)F)c3)C(=O)N(C)c3ccccc32)CC1 (racemic) [Example 30, N-[3(R,S)-2,3-Dihydro-1-methyl-2-oxo-5-(4-methylpiperazin-1-yl)-1H-1,4-benzodiazepin-3-yl]-N′-[3-trifluoromethylphenyl] urea]
> 3000 | CCCN1C(=O)C(NC(=O)Nc2ccc(N(C)C)cc2)N=C(N2CCN(C)CC2)c2ccccc21 (racemic) [Example 53, N-[3(R,S)-2,3-Dihydro-5-(4-methylpiperazin-1-yl)-2-oxo-1-propyl-1H-1,4-benzodiazepin-3-yl]-#′-[4-(dimethylamino)phenyl] urea]
21.4 | CN1C(=O)C(NC(=O)Nc2cccc(-c3cc(=O)c(O)co3)c2)N=C(N2CCCCCC2)c2ccccc21 (racemic) [Example 62, N-[3(R,S)-2,3-Dihydro-5-(homopiperidin-1-yl)-1-methyl-2-oxo-1H-1,4-benzodiazepin-3-yl]-N′-[3-(5-hydroxy-4-pyron-2-yl)phenyl] urea]
17.2 | Cc1cccc(NC(=O)NC2N=C(N3CCSCC3)c3ccccc3N(C)C2=O)c1 (racemic) [Example 65, N-[3(R,S)-2,3-Dihydro-1-methyl-2-oxo-5-(thiomorpholin-4-yl)-1H-1,4-benzodiazepin-3-yl]-N′-[3-methylphenyl] urea]
515 | CCCN1C(=O)C(NC(=O)Nc2cccc(C)c2)N=C(N2CCSCC2)c2ccccc21 (single isomer, unassigned; (-)) [Example 69, (-)-N-[2,3-Dihydro-2-oxo-1-propyl-5-(thiomorpholin-4-yl)-1H-1,4-benzodiazepin-3-yl]-N′-[3-methylphenyl] urea hydrochloride]
> 3000 | CCCN1C(=O)C(NC(=O)Nc2cccc(OC)c2)N=C(N2CCN(C)CC2)c2ccccc21 (racemic) [Example 12, N-[3(R,S)-2,3-Dihydro-5-(4-methylpiperazin-1-yl)-2-oxo-1-propyl-1H-1,4-benzodiazepin-3-yl]-N#MIN#-[3-methoxyphenyl] urea]
16.7 | CN1C(=O)C(NC(=O)Nc2ccc(F)c(F)c2)N=C(N2CCCCCC2)c2ccccc21 (racemic) [Example 57, N-[3(R,S)-2,3-Dihydro-5-(homopiperidin-1-yl)-1-methyl-2-oxo-1H-1,4-benzodiazepin-3-yl]-N′-[3,4-difluorophenyl] urea]
3730 | CCCN1C(=O)C(NC(=O)Nc2cccc(C)c2)N=C(N2CCN(CC)CC2)c2ccccc21 (racemic) [Example 37, N-[3(R,S)-2,3-Dihydro-5-(4-ethylpiperazin-1-yl)-2-oxo-1-propyl-1H-1,4-benzodiazepin-3-yl]-N#MIN#-[3-methylphenyl] urea]
1800 | Cc1cccc(NC(=O)NC2N=C(N3CCN(C)CC3)c3ccccc3N(CC(C)C)C2=O)c1 (racemic) [Example 22, N-[3(R,S)-2,3-Dihydro-5-(4-methylpiperazin-1-yl)-1-(2-methylpropyl)-2-oxo-1H-1,4-benzodiazepin-3-yl]-N′-[3-methylphenyl] urea]
399 | CC(C)c1ccc(NC(=O)NC2N=C(N3CCCCCC3)c3ccccc3N(C)C2=O)cc1 (racemic) [Example 54, N-[3(R,S)-2,3-Dihydro-5-(homopiperidin-1-yl)-1-methyl-2-oxo-1H-1,4-benzodiazepin-3-yl]-N′-[4-isopropylphenyl] urea]
2800 | Cc1cccc(NC(=O)NC2N=C(N3CCCN(C)CC3)c3ccccc3N(C)C2=O)c1 (racemic) [Example 17, N-[3(R,S)-2,3-Dihydro-1-methyl-5-(4-methylhomopiperazin-1-yl)-2-oxo-1H-1,4-benzodiazepin-3-yl]-N′-[3-methylphenyl] urea]
120 | CCCN1C(=O)C(NC(=O)Nc2cccc(C)c2)N=C(N2CCCCC2)c2ccccc21 (racemic) [Example 44, N-[3(R,S)-2,3-Dihydro-2-oxo-5-(piperidin-1-yl)-1-propyl-1H-1,4-benzodiazepin-3-yl]-N′-[3-methylphenyl] urea]
8.92 | CN1C(=O)C(NC(=O)Nc2ccc3c(c2)CCC3)N=C(N2CCCCCC2)c2ccccc21 (single isomer, unassigned; (+)) [Example 59, (+)-N-(2,3-Dihydro-5-(homopiperidin-1-yl)-1-methyl-2-oxo-1H-1,4-benzodiazepin-3-yl]-N′-[5-indanyl] urea hydrochloride]
> 3000 | CCCN1C(=O)C(NC(=O)Nc2ccc3c(c2)N(C)CC3)N=C(N2CCN(C)CC2)c2ccccc21 (racemic) [Example 56, N-[3(R,S)-2,3-Dihydro-5-(4-methylpiperazin-1-yl)-2-oxo-1-propyl-1H-1,4-benzodiazepin-3-yl]-N#MIN#-[1-methyl-6-indolinyl] urea]
> 3000 | CCCN1C(=O)C(NC(=O)Nc2ccc3c(c2)CCC3)N=C(N2CCN(C)CC2)c2ccccc21 (racemic) [Example 33, N-[3(R,S)-2,3-Dihydro-5-(4-methylpiperazin-1-yl)-2-oxo-1-propyl-1H-1,4-benzodiazepin-3-yl]-N′-[5-indanyl] urea]
